Laboratory results: ChEMBL document CHEMBL4130577, “Platanic acid: A new scaffold for the synthesis of cytotoxic agents” (Eur J Med Chem, 2018)

Experiments:
518A2 = assay: Cytotoxicity against human 518A2 cells after 96 hrs by SRB assay; assay type: functional, cell-based; conditions: 518A2, 96 h
A2780 = assay: Cytotoxicity against human A2780 cells after 96 hrs by SRB assay; assay type: functional, cell-based; conditions: A2780, 96 h
MCF7 = assay: Cytotoxicity against human MCF7 cells after 96 hrs by SRB assay; assay type: functional, cell-based; conditions: MCF7, 96 h
A549 = assay: Cytotoxicity against human A549 cells after 96 hrs by SRB assay; assay type: functional, cell-based; conditions: A549, 96 h
NIH3T3 = assay: Cytotoxicity against mouse NIH/3T3 cells after 96 hrs by SRB assay; assay type: cell-based; conditions: NIH3T3, 96 h
HT-29 = assay: cells; conditions: Homo sapiens, HT-29, 96 h
Description: Cytotoxicity against human HT-29 cells after 96 hrs by SRB assay

Row | SMILES | EC50 (HT-29) [µM] | EC50 (518A2) [µM] | EC50 (A2780) [µM] | EC50 (MCF7) [µM] | EC50 (A549) [µM] | EC50 (NIH3T3) [µM]
1 | COC(=O)[C@]12CC[C@@H](/C(C)=N/OC(C)=O)[C@@H]1[C@H]1CC[C@@H]3[C@@]4(C)CC[C@H](OC(C)=O)C(C)(C)[C@@H]4CC[C@@]3(C)[C@]1(C)CC2 | 23.8 | 16.5 | – | 13.1 | 13.5 | 15
2 | COC(=O)[C@]12CC[C@@H](/C(C)=N/O)[C@@H]1[C@H]1CC[C@@H]3[C@@]4(C)CC[C@H](OC(C)=O)C(C)(C)[C@@H]4CC[C@@]3(C)[C@]1(C)CC2 | 14.4 | 7.8 | 12.2 | 12.4 | 8.2 | 14
3 | CNC(=O)[C@@H]1CC[C@]2(C(=O)OC)CC[C@]3(C)[C@H](CC[C@@H]4[C@@]5(C)CC[C@H](OC(C)=O)C(C)(C)[C@@H]5CC[C@]43C)[C@@H]12 | > 30 | – | 11.2 | 13.9 | > 30 | > 30
4 | COC(=O)[C@]12CC[C@@H](NC(C)=O)[C@@H]1[C@H]1CC[C@@H]3[C@@]4(C)CC[C@H](OC(C)=O)C(C)(C)[C@@H]4CC[C@@]3(C)[C@]1(C)CC2 | > 30 | – | 22.1 | 10 | 27.7 | 24.1
5 | CC(=O)[C@@H]1CC[C@]2(N)CC[C@]3(C)[C@H](CC[C@@H]4[C@@]5(C)CC[C@H](O)C(C)(C)[C@@H]5CC[C@]43C)[C@@H]12 | 18.7 | > 30 | > 30 | > 30 | > 30 | 27.5
6 | CC(=O)[C@@H]1CC[C@]2(C(=O)O)CC[C@]3(C)[C@H](CC[C@@H]4[C@@]5(C)CC[C@H](O)C(C)(C)[C@@H]5CC[C@]43C)[C@@H]12 [PLATANIC ACID] | 36.2 | 44.8 | 37 | 34.2 | 47.3 | 35.4
7 | CN[C@@H]1C[C@H]2O[C@@](C)([C@@H]1OC)n1c3ccccc3c3c4c(c5c6ccccc6n2c5c31)C(=O)NC4 [STAUROSPORINE] | 0.15 | – | 0.12 | – | 0.04 | 0.008
8 | COC(=O)[C@]12CC[C@@H]([C@H](C)NC(C)=O)[C@@H]1[C@H]1CC[C@@H]3[C@@]4(C)CC[C@H](OC(C)=O)C(C)(C)[C@@H]4CC[C@@]3(C)[C@]1(C)CC2 | 24.7 | 30.1 | 25.3 | 17.9 | 25.5 | 19.4
9 | COC(=O)[C@]12CC[C@@H](NC(C)=O)[C@@H]1[C@H]1CC[C@@H]3[C@@]4(C)CC[C@H](O)C(C)(C)[C@@H]4CC[C@@]3(C)[C@]1(C)CC2 | > 30 | – | > 30 | > 30 | > 30 | > 30
10 | CC(=O)O[C@H]1CC[C@]2(C)[C@H]3CC[C@@H]4[C@H]5[C@H](C(C)=O)CC[C@]5(C(=O)OCc5ccccc5)CC[C@@]4(C)[C@]3(C)CC[C@H]2C1(C)C | > 30 | – | > 30 | > 30 | – | > 30
11 | CC(=O)O[C@H]1CC[C@]2(C)[C@H]3CC[C@@H]4[C@H]5[C@H](/C(C)=N\O)CC[C@]5(C(=O)OCc5ccccc5)CC[C@@]4(C)[C@]3(C)CC[C@H]2C1(C)C | 20.1 | 16.5 | 9.9 | 7.3 | 11.2 | 14
12 | CCC(=O)O/N=C(\C)[C@@H]1CC[C@]2(C(=O)OC)CC[C@]3(C)[C@H](CC[C@@H]4[C@@]5(C)CC[C@H](OC(C)=O)C(C)(C)[C@@H]5CC[C@]43C)[C@@H]12 | 28.7 | 17.9 | – | 13.4 | 13.2 | 15.3
13 | CC(=O)O[C@H]1CC[C@]2(C)[C@H]3CC[C@@H]4[C@H]5[C@H](C(C)=O)CC[C@]5(C(=O)O)CC[C@@]4(C)[C@]3(C)CC[C@H]2C1(C)C | > 30 | > 30 | > 30 | > 30 | > 30 | > 30
14 | COC(=O)[C@]12CC[C@@H](C(C)=O)[C@@H]1[C@H]1CC[C@@H]3[C@@]4(C)CC[C@H](O)C(C)(C)[C@@H]4CC[C@@]3(C)[C@]1(C)CC2 | > 30 | – | > 30 | > 30 | > 30 | > 30
15 | COC(=O)[C@]12CC[C@@H](C(C)=O)[C@@H]1[C@H]1CC[C@@H]3[C@@]4(C)CC[C@H](OC(C)=O)C(C)(C)[C@@H]4CC[C@@]3(C)[C@]1(C)CC2 | > 30 | – | > 30 | > 30 | – | > 30
16 | CC(=O)[C@@H]1CC[C@]2(C(=O)OCc3ccccc3)CC[C@]3(C)[C@H](CC[C@@H]4[C@@]5(C)CC[C@H](O)C(C)(C)[C@@H]5CC[C@]43C)[C@@H]12 | 10.1 | – | 15.8 | 9 | 15.9 | 18.1
17 | COC(=O)[C@]12CC[C@@H]([C@@H](C)NC(C)=O)[C@@H]1[C@H]1CC[C@@H]3[C@@]4(C)CC[C@H](OC(C)=O)C(C)(C)[C@@H]4CC[C@@]3(C)[C@]1(C)CC2 | 27.6 | 27 | 27.3 | 21.4 | 22.9 | 16
18 | CC(=O)O[C@H]1CC[C@]2(C)[C@H]3CC[C@@H]4[C@H]5[C@H](/C(C)=N/O)CC[C@]5(C(=O)OCc5ccccc5)CC[C@@]4(C)[C@]3(C)CC[C@H]2C1(C)C | 12.3 | 9 | 6.1 | 6.8 | 7.9 | 6.1
19 | CNC(=O)[C@@H]1CC[C@]2(C(=O)OC)CC[C@]3(C)[C@H](CC[C@@H]4[C@@]5(C)CC[C@H](O)C(C)(C)[C@@H]5CC[C@]43C)[C@@H]12 | > 30 | – | > 30 | > 30 | > 30 | > 30
20 | CC(=O)O[C@H]1CC[C@]2(C)[C@H]3CC[C@@H]4[C@H]5[C@H](C(C)=O)CC[C@]5(N=C=O)CC[C@@]4(C)[C@]3(C)CC[C@H]2C1(C)C | > 30 | – | > 30 | > 30 | – | > 30

The remaining molecules from weak to strong by EC50 (HT-29), led by results:

Row | EC50 (HT-29) [µM] | SMILES | EC50 (518A2) [µM] | EC50 (A2780) [µM] | EC50 (MCF7) [µM] | EC50 (A549) [µM] | EC50 (NIH3T3) [µM]
21 | 5 | C[C@@H](N)[C@@H]1CC[C@]2(C(=O)OCc3ccccc3)CC[C@]3(C)[C@H](CC[C@@H]4[C@@]5(C)CC[C@H](O)C(C)(C)[C@@H]5CC[C@]43C)[C@@H]12 | 7.5 | 7.5 | 5.6 | 10.1 | 7.3
22 | 4.5 | CC(=O)O[C@H]1CC[C@]2(C)[C@H]3CC[C@@H]4[C@H]5[C@H](C(C)=O)CC[C@]5(C(=O)NCCN(C)C)CC[C@@]4(C)[C@]3(C)CC[C@H]2C1(C)C | 3.7 | 3.8 | 2.5 | 2.9 | 1.4
23 | 3.9 | CC(=O)[C@@H]1CC[C@]2(C(=O)NCCN(C)C)CC[C@]3(C)[C@H](CC[C@@H]4[C@@]5(C)CC[C@H](O)C(C)(C)[C@@H]5CC[C@]43C)[C@@H]12 | 3.6 | 4 | 3.2 | 5.1 | 3.5
24 | 3.3 | CC(=O)O[C@H]1CC[C@]2(C)[C@H]3CC[C@@H]4[C@H]5[C@H](C(C)=O)CC[C@]5(C(=O)NCCN)CC[C@@]4(C)[C@]3(C)CC[C@H]2C1(C)C | 3.2 | 3.2 | 3.1 | 3.2 | 2.1
25 | 2.3 | CC(=O)[C@@H]1CC[C@]2(C(=O)NCCN)CC[C@]3(C)[C@H](CC[C@@H]4[C@@]5(C)CC[C@H](O)C(C)(C)[C@@H]5CC[C@]43C)[C@@H]12 | 2.5 | 2.5 | 2.4 | 2.6 | 2.5
26 | 2.3 | CC(=O)O[C@H]1CC[C@]2(C)[C@H]3CC[C@@H]4[C@H]5[C@H]([C@@H](C)N)CC[C@]5(C(=O)OCc5ccccc5)CC[C@@]4(C)[C@]3(C)CC[C@H]2C1(C)C | 2.2 | 4 | 3 | 3.1 | 4.1
27 | 2.2 | CC(=O)O[C@H]1CC[C@]2(C)[C@H]3CC[C@@H]4[C@H]5[C@H](C(C)=O)CC[C@]5(C(=O)NCCN5CCCC5)CC[C@@]4(C)[C@]3(C)CC[C@H]2C1(C)C | 3.3 | 4.3 | 2 | 2.9 | 0.6
28 | 2 | COC(=O)[C@]12CC[C@@H]([C@H](C)N)[C@@H]1[C@H]1CC[C@@H]3[C@@]4(C)CC[C@H](OC(C)=O)C(C)(C)[C@@H]4CC[C@@]3(C)[C@]1(C)CC2 | 6.3 | 6 | 4.6 | 6.6 | 4.4
29 | 1.5 | CC(=O)[C@@H]1CC[C@]2(C(=O)OCc3ccccc3)CC[C@]3(C)[C@H](CC[C@@H]4[C@@]5(C)CC[C@H](N)C(C)(C)[C@@H]5CC[C@]43C)[C@@H]12 | 1.9 | 2.2 | 1.8 | 2.1 | 2.3
30 | 1.2 | CC(=O)OC[C@]12CC[C@@H]([C@@H](C)N)[C@@H]1[C@H]1CC[C@@H]3[C@@]4(C)CC[C@H](OC(C)=O)C(C)(C)[C@@H]4CC[C@@]3(C)[C@]1(C)CC2 | 2.2 | 2.5 | 2.1 | 2.3 | 4
